Assay results reported in patent US20220267374A1, “IMMUNITY INDUCER AND PHARMACEUTICAL COMPOSITION FOR PREVENTING OR TREATING AGING-RELATED DISEASES” (priority 2019, published 2022).
Ends that are not written are not given here.

Assays:
GPNMB protein = assay: Antibody titer by ELISA in plasma of vaccinated mice; assay type: in vivo, C57BL/6 mice; details: vs control vaccine group; KLH-bound peptide 20 μg with Titer Max Gold s.c. at 8 weeks of age, HFD-fed mice; plasma up to 6 weeks; FIG. 2A
Protocol: First, the antibody titers of the obtained two peptide vaccines were examined. Peptide vaccine 1 or peptide vaccine 2 (20 μg) and Titer Max Gold adjuvant (Titer Max USA) conjugated with KLH as carrier protein for induction of cytotoxic antibody were mixed in two syringes according to the manufacturer's protocol for emulsification. Subsequently, eight-week-old C57BL/6 mice fed with HFD from 4 weeks of age were subcutaneously injected with KLH-binding antigen peptide (20 μg) with a Titer Max Gold adjuvant to induce cytotoxic antibodies. C57BL/6 mice in the control group were subcutaneously injected with a KLH solution (hereinafter, referred to as “control vaccine”) mixed with Titer Max Gold in an equal amount. Plasma was collected from the tail vein of each mouse immediately after administration of the peptide vaccine and after 2, 4, and 6 weeks for antibody titer analysis. The antibody titer produced by injection of each peptide was measured by ELISA. Specifically, first, a 96-well microtiter plate (Nunc-Immuno MicroWell 96-well solid plate, Thermo Scientific) was coated using a carbonate buffer containing peptide vaccine 1 or peptide vaccine 2 bonded to bovine serum albumin (BSA). […] After reacting with the TMB substrate (Sigma-Aldrich, T0440), the optical density was measured at 450 nm (0D450) using a microtiter plate reader (iMark microplate reader, Bio-Rad).

[1] = system: replicative aging adipose precursor cells derived from C57BL/6 mice; assay: ADCC (Antibody-Dependent-Cellular-Cytotoxicity) activity analysis; assay type: cell-based; details: purified IgG from mice administered with the vaccine; NK effector cells/target cells 1/1; LDH release, 4 hours; FIG. 2E
Protocol: ADCC (Antibody-Dependent-Cellular-Cytotoxicity) was evaluated using a CytoTox 96 non-radioactive cytotoxicity assay kit (Promega). Specifically, natural killer (NK) cells were isolated from C57BL/6 mice as effector cells using Ficoll-Paque Plus (GE Healthcare) and EasySep mouse NK cell isolation kit (STEMCELL). Subsequently, as target cells, replicative aging adipose precursor cells derived from C57BL/6 mice were seeded on a 96-well plate so as to have 10^4 cells per well. Subsequently, purified IgG antibody obtained from C57BL/6 mice bred by feeding HFD from 4 weeks of age and administered with peptide vaccine 1 or a control vaccine by subcutaneous injection at a time point of 8 weeks of age was added to each well, and incubated at 37° C. for 30 minutes. After incubation, NK cells were seeded in each well so that a ratio of the cell number of effector cells to the target cells (effector cells/target cells) was 1/1. Subsequently, the plates were incubated at 37° C. for an additional 4 hours. Subsequently, lactate dehydrogenase released in a supernatant was detected using a microtiter plate reader (iMark microplate reader, Bio-Rad). To evaluate cell death, a ratio of lysed cells to the total number of cultured cells was calculated. In FIG. 2E, “Cont vac” is a C57BL/6 mouse administered with the control vaccine, and “Gpnmb vac” is a C57BL/6 mouse administered with peptide vaccine 1.

[2] = Survival curve (Kaplan-Meier); assay type: in vivo, Zmpste24 KO mice; details: normal diet, s.c. vaccination at 10 weeks of age; regardless of gender; FIG. 2M
Protocol: In addition, Zmpste24-deficient (KO) mice (model of Hutchinson-Gilford progeria syndrome, MGI: 2158363) were used as a model of premature aging mice. Generation and genotyping of Zmpste24 KO mice followed the previous report (http://www.informatics.jax.org/allele/MGI:2158363).
Zmpste24 KO mice were bred on normal diet. For some Zmpste24 KO mice, peptide vaccine 1 was administered by subcutaneous injection at a time point of 10 weeks of age (about 50 weeks of age in C57BL/6 mice). Survival curves were calculated by the Kaplan-Meier method and compared by a log-rank test (refer to FIG. 2M).

arteriosclerotic plaque = assay: Detection of arteriosclerotic plaque (Oil Red O staining); assay type: in vivo, ApoE/Gpnmb-DTR mice; details: HFD from 4 to 16 weeks of age, s.c. vaccination at 8 weeks of age; vs control vaccine; FIGS. 2J, 2K
Protocol: Arteriosclerotic plaques were detected by Oil Red O staining. Briefly, autopsy removed adventitial fat to open the entire aorta and fixed the aorta flat in 4 v/v % paraformaldehyde at room temperature for 12 hours. Subsequently, the fixed aorta was washed by immersing in 60 v/v % isopropyl alcohol for 1 minute. Subsequently, the aorta was incubated at 37° C. for 15 minutes in 0.5% of Oil Red O (Sigma-Aldrich) solution (diluted with 60 v/v % isopropyl alcohol). After staining, the sample was briefly immersed in a 60 v/v % isopropyl alcohol solution and then washed with double distilled water. Atherosclerotic lesions were stained red with Oil Red O (refer to FIG. 1G). For the Oil Red O stained region, the plaque region was quantified by Image-J software (refer to FIG. 1H). […]
Detection of arteriosclerotic plaque and analysis of Gpnmb-dependent luciferase activity were performed using the same method as in “6.” and “2.” of Reference Example 1, except that ApoE/Gpnmb-DTR mice (16 weeks of age) bred while feeding HFD for 12 weeks from 4 to 16 weeks of age and administered with peptide vaccine 1 or a control vaccine by subcutaneous injection at a time point of 8 weeks of age were used (refer to FIG. 2J). The Oil Red O stained region was quantified by Image-J software (refer to FIG. 2K). […]

Question: With “RRGDGRWKD (also: KLH conjugate; listed as Mus musculus) [peptide vaccine 1, peptide of positions 63 to 71 of mouse GPNMB protein]” as the sequence, how does the “antibody titer against GPNMB protein” value (GPNMB protein) read?
Answer: Its value is “significantly higher”.

Question: What about the “antibody-dependent cellular cytotoxicity (ADCC activity)” value [1] of the same sequence?
Answer: Its value is “exhibits antibody-dependent cellular cytotoxicity (ADCC activity)”.

Question: What about the “lifespan (survival curve)” value [2] of the same sequence?
Answer: The value was “extended”.

Question: What about the “development of atheroma (arteriosclerotic plaque, Oil Red O stained region)” value (arteriosclerotic plaque) of the same sequence?
Answer: The value was “significantly decreased”.
